# Patent publication US12171756B2, “NLRP3 modulators” (Innate Tumor Immunity, Inc., priority 2017, dated 2024)
# How the values were obtained:
# [1] = test system: IL-1β production in PMA-differentiated THP-1 cells; assay: Measurement of IL-1β production in PMA-differentiated THP-1 cells (ELISA, 4 hours); format: cell-based, human; conditions: Homo sapiens, THP-1, human IL-1β production, assayed using one or more of the described procedures, read-out: NLRP3 hIL1B IC50
# Protocol: Measurement of IL-1β Production in PMA-Differentiated THP-1 Cells THP-1 cells were purchased from the American Type Culture Collection and sub-cultured according to instructions from the supplier. Prior to experiments, cells were cultured in RPMI 1640 containing 10% heat inactivated FBS, penicillin (100 units/ml) and streptomycin (100 μg/ml), and maintained in log phase prior to experimental setup. Prior to the experiment THP-1 were treated with PMA (Phorbol 12-myristate 13-acetate) (10 μg/ml) for 24 hours. The day of the experiment the media was removed and attaching cells were treated with trypsin for 2 minutes, cells were then collected, washed with PBS (phosphate buffer saline), spin down, resuspended in 2% heat inactivated FBS with RPMI at a concentration of 1×10^6 cells/ml, and 100 μl was plated in a 96 well plate. Compounds were dissolved in dimethyl sulfoxide (DMSO) and added to the culture medium to achieve desired concentration (e.g. 100, 30, 10, 3, 1, 0.3 or 0.1 μM). Cells were incubated with compounds for 4 hours. Cell free supernatant was collected and the production of IL-1β was evaluated by ELISA. A vehicle only control was run concurrently with each experiment. Final DMSO concentration was 1%.
# human TLR7 = target: T1, human TLR7 (Homo sapiens, UniProt Q9NYK1); assay: In vitro human TLR7 binding reporter assay (HEK-Blue, NF-kB/AP1-inducible SEAP); format: cell-based; conditions: HEK-Blue human TLR7 SEAP reporter cells; activity range classes; read-out: TLR7 Agonist EC50
# T1 construct: host or cells: human HEK-Blue cells (HEK293-derived) co-expressing TLR7 and an NF-kB/AP1-inducible SEAP reporter
# T1 sequence (Q9NYK1 27-1049): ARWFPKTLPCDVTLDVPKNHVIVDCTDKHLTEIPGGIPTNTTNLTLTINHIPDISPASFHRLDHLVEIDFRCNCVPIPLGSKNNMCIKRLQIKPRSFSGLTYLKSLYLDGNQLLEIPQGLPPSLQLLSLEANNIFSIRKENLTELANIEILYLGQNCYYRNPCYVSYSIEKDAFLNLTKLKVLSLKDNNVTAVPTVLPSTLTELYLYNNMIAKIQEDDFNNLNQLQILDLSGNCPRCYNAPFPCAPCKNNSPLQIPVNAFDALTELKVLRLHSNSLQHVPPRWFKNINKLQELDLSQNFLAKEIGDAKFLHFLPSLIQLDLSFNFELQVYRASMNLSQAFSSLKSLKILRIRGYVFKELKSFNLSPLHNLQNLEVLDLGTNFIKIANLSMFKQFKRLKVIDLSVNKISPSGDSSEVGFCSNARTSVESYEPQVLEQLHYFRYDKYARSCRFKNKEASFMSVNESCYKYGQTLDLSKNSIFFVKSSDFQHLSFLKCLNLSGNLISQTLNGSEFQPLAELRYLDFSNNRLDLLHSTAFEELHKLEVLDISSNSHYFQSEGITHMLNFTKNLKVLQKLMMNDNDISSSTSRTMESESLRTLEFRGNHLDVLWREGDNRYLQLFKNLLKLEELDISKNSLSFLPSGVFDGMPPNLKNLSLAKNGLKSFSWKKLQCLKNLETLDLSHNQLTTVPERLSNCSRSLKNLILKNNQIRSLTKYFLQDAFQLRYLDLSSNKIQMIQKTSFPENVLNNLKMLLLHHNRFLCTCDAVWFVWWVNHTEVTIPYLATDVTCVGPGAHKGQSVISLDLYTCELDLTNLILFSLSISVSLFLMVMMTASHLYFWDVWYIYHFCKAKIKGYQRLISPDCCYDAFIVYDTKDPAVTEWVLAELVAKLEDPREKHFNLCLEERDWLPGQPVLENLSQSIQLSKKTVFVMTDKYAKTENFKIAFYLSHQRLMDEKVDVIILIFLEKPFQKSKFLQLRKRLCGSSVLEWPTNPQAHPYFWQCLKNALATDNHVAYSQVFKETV
# Protocol: (§1) In Vitro Human TLR7 and TLR8 Binding Reporter Assays
# (§2) Logarithmically-growing human HEK-Blue cells co-expressing a TLR7 or TLR8 gene and a NF-kB/AP1-inducible SEAP (secreted embryonic alkaline phosphatase; Invivogen, San Diego, CA) reporter gene are added to individual wells of a 384-well plate (15,000 cells per 20 μL per well) and maintained for 24 h at 37° C., 5% CO2. Test compounds or DMSO are distributed to separate wells the next day using acoustic liquid handling technology (100 nL per well) and cells are subsequently incubated for 18 h at 37° C., 5% CO2. Cellular SEAP production is measured using an Envision plate reader instrument thirty minutes after adding freshly-made Quanti-Blue reagent (prepared by following manufacturer instructions; Invivogen, San Diego, CA) to the HEK-Blue TLR Nf-kB-SEAP cell reactions. All EC50 values (half-maximal effective concentration) are determined using proprietary data analysis software. Normalized EC50 value=absolute value determined by setting 100% Ymax using a reference standard RLU (relative light unit) values from cells treated with 50 μM of the reference standard.
# human TLR8 = target: T2, human TLR8 (Homo sapiens, UniProt Q9NR97); assay: In vitro human TLR8 binding reporter assay (HEK-Blue, NF-kB/AP1-inducible SEAP); format: cell-based; conditions: HEK-Blue human TLR8 SEAP reporter cells; activity range classes; read-out: TLR8 Agonist EC50
# T2 construct: host or cells: human HEK-Blue cells (HEK293-derived) co-expressing TLR8 and an NF-kB/AP1-inducible SEAP reporter
# T2 sequence (Q9NR97 27-1041): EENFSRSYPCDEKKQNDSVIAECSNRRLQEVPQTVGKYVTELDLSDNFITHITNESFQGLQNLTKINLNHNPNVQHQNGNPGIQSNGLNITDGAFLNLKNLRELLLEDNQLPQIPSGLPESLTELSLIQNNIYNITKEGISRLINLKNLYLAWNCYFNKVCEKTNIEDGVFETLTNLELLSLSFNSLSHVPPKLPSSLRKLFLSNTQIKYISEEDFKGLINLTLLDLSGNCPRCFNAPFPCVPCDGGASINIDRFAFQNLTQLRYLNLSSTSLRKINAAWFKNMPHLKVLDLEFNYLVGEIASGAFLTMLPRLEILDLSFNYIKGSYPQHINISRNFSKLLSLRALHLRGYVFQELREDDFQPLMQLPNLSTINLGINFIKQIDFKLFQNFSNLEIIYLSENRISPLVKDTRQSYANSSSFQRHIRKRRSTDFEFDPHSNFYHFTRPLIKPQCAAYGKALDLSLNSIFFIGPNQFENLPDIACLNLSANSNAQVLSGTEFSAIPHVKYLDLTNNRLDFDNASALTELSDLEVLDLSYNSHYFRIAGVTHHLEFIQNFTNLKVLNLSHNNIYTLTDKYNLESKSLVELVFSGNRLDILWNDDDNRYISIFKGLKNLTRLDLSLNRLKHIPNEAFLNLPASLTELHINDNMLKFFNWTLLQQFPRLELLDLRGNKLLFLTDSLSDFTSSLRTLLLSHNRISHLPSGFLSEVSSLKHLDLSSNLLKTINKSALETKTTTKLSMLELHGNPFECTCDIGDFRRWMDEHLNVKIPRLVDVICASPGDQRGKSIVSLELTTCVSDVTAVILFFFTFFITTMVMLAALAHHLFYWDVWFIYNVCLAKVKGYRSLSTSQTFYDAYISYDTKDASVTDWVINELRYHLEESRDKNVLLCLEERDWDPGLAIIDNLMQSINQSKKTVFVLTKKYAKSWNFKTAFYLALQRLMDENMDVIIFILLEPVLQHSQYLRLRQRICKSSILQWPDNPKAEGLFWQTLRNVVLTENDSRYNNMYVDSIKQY
# Protocol: as §1, §2
SMILES,IC50 [1] [µM],EC50 (human TLR7) [µM],EC50 (human TLR8) [µM]
Nc1cc(NCCc2ccccn2)c2ccc(-c3ccn[nH]3)cc2n1 [Compound 151],0.31,> 100,> 100
Nc1cc(NCCn2ccnc2)c2ccc(-c3ccn[nH]3)cc2n1 [Compound 152],1.03,> 100,> 100
Nc1cc(NC[C@H](O)CO)c2ccc(-c3ccn[nH]3)cc2n1 [Compound 153],1.11,> 100,> 100
Nc1cc(NCC(O)c2cccnc2)c2ccc(-c3ccn[nH]3)cc2n1 (stereo not drawn) [Compound 154],0.44,> 100,> 100
Nc1cc(NCC(O)c2ccccn2)c2ccc(-c3ccn[nH]3)cc2n1 (stereo not drawn) [Compound 155],0.42,> 100,> 100
Cc1nc(CNc2cc(N)nc3cc(-c4ccn[nH]4)ccc23)cs1 [Compound 156],0.2,> 100,> 100
CC(=O)N[C@H]1CCN(c2cc(N)nc3cc(-c4ccn[nH]4)ccc23)C1 [Compound 158],35.8,> 100,> 100
Nc1cc(NCc2cnc[nH]2)c2ccc(-c3ccn[nH]3)cc2n1 [Compound 159],0.52,> 100,> 100
Nc1cc(N[C@H]2CCCC[C@@H]2O)c2ccc(-c3ccn[nH]3)cc2n1 [Compound 160],2.76,> 100,> 100
Nc1cc(NCC(F)(F)c2ccccn2)c2ccc(-c3ccn[nH]3)cc2n1 [Compound 161],0.15,> 100,> 100
Nc1cc(N[C@@H]2CCCC[C@H]2O)c2ccc(-c3ccn[nH]3)cc2n1 [Compound 162],2.49,> 100,> 100
Nc1cc(NCCn2cncn2)c2ccc(-c3ccn[nH]3)cc2n1 [Compound 163],0.16,> 100,> 100
Nc1cc(N2CCc3ncccc3C2)c2ccc(-c3ccn[nH]3)cc2n1 [Compound 164],1.91,> 100,> 100
C[C@@H](CO)Nc1cc(N)nc2cc(-c3ccn[nH]3)ccc12 [Compound 165],0.47,> 100,> 100
CN(C)c1cc(N)nc2cc(-c3ccn[nH]3)ccc12 [Compound 166],0.56,> 100,> 100
"Nc1cc(-n2ccnc2)c2ccc(-c3ccn[nH]3)cc2n1 [Compound 167, 4-(1H-imidazol-1-yl)-7-(1H-pyrazol-5-yl)quinolin-2-amine]",8.33,> 100,> 100
Nc1cc(NCCO)c2ccc(-c3cc[nH]n3)cc2n1 [Compound 169],1.37,> 100,> 100
CCN(CC)CCNc1cc(N)nc2cc(-c3ccn[nH]3)ccc12 [Compound 170],5.82,> 100,> 100
"Nc1cc(OCCCCO)c2ccc(-c3ccn[nH]3)cc2n1 [Compound 172, 4-((2-amino-7-(1H-pyrazol-5-yl)quinolin-4-yl)oxy)butan-1-ol]",0.41,> 100,> 100
"Nc1cc(NCCCO)c2ccc(-n3cccn3)cc2n1 [Compound 173, 3-((2-amino-7-(1H-pyrazol-1-yl)quinolin-4-yl)amino)propan-1-ol]",0.28,> 100,> 100
CNC(=O)CCNc1cc(N)nc2cc(-n3cccn3)ccc12 [Compound 174],0.82,> 100,> 100
Nc1cc(NCc2cccnc2)c2ccc(-n3cccn3)cc2n1 [Compound 175],0.97,> 100,> 100
CC(C)(O)CNc1cc(N)nc2cc(-n3cccn3)ccc12 [Compound 176],0.7,> 100,> 100
"CC(=O)NCCOc1cc(N)nc2cc(-n3cccn3)ccc12 [Compound 177, N-(2-((2-amino-7-(1H-pyrazol-1-yl)quinolin-4-yl)oxy)ethyl)acetamide]",3.07,> 100,> 100
"Nc1cc(OCCO)c2ccc(-c3ccn[nH]3)cc2n1 [Compound 178, 2-((2-amino-7-(1H-pyrazol-5-yl)quinolin-4-yl)oxy)ethan-1-ol]",0.7,> 100,> 100
Nc1cc(OCCCO)c2ccc(-c3ccn[nH]3)cc2n1 [Compound 179],0.78,> 100,> 100
Nc1cc(OCCCCN2CCS(=O)(=O)CC2)c2ccc(-c3ccn[nH]3)cc2n1 [Compound 180],9.72,> 100,> 100
CCCOc1cc(N)nc2cc(-c3ccn[nH]3)ccc12 [Compound 182],1.14,> 100,> 100
Nc1cc(OCC(=O)N2CCCC2)c2ccc(-c3ccn[nH]3)cc2n1 [Compound 183],8.4,> 100,> 100
